The text below walks through data of US20230026856A1, “HETEROCYCLIC COMPOUNDS AND METHODS OF USE THEREOF” (SPARCBIO LLC, priority 2020, published 2023).

Bounds are passed on as bounds.

In assay [1] the target is KRAS G12C protein (Homo sapiens, UniProt P01116, G12C). The experiment in a line: Nucleotide exchange assay, Method III (TR-FRET, association of KRAS G12C with Raf-RBD, SOS1-mediated exchange). It is filed as biochemical. The note with it: overnight (18 hr) incubation with GDP-bound KRAS G12C. As for the experimental part:
Method III. Inhibition of SOS1-mediated exchange of GDP for GTP on the KRAS G12C protein was measured in a biochemical assay that monitors association of KRAS G12C protein with the Ras-binding domain of Raf (Raf-RBD), where the association is coupled to exchange of GDP to GTP on the KRAS G12C protein. The assay was performed at WuXi AppTec (Shanghai, China). Compounds were serially diluted in 3-fold dilutions to 11 concentrations and spotted into the wells of an assay plate in a total volume of 150 nL DMSO per well. A 2× enzyme mix was prepared by diluting GDP-bound, His-tagged KRAS G12C to 25 nM in assay buffer. 10 μL/well of 2× enzyme mix was added to all wells, and the plate was sealed and incubated overnight (18 hr) at 23° C. 4×SOS1/GDP and 4×SOS1/GTP were prepared in assay buffer. 5 μL/well of 4×SOS1/GDP mix was added to negative control wells, 5 μL/well of 4×SOS1/GTP mix was added to the remaining wells, and the plate was further incubated at 23° C. for 1 hr. Finally, FLAG-tagged Raf-RBD is added to the reaction mixture along with a pair of FRET donor- and acceptor-conjugated antibodies specific for the FLAG-tagged Raf-RBD and His-tagged KRAS G12C proteins. A 4× Raf-RBD/Tb-anti-FLAG/D2-anti-His mix was prepared in assay buffer, and 5 μL/well of the mix was added to all wells, followed by incubation at room temperature for 2 hr. The TR-FRET signals, which increase with association of KRAS G12C and Raf-RBD, were measured on a Perkin Elmer Envision 2104 plate reader, and data were analyzed by non-linear regression to obtain IC50 values for inhibition by compounds. Table 2 includes results of the assay of Method III. ‘+++’ indicates IC50 values ≤300 nM, ‘++’ indicates IC50 values between 300 nM-3 μM, and ‘+’ indicates IC50 values ≥3 μM.
(In TR-FRET formats the signal depends on donor and acceptor labels being close together.)

The test system of assay [2] is NCI-H358 cells. The experiment in a line: 3D cell proliferation assay (Cell Titer-Glo 3D). It is filed as cell-based. To be noted: Homo sapiens, NCI-H358, 168 h, NCI-H358, 3D (ultra-low attachment); 7 days. As for the experimental part:
NCI-H358 cells (ATCC® CRL-5807™) were plated in a 384-well Black/Clear Round Bottom Ultra-Low Attachment Microplate (Corning) in medium (RPMI-1640+10% FBS) at a density of 1000 cells in 50 μL per well, then incubated overnight at 37° C. and 5% CO2. Cells were treated with test compounds at 9 concentrations within a specified concentration range (e.g., 0.5 nM-10 μM) for generation of dose response curves. Test compounds were prepared by 1:3 serial dilution in DMSO from a specified starting concentration (e.g., 20 μM, 2 μM or 0.2 μM) and then added to wells of the assay plate in a total volume of 150 nL DMSO. The cells were further incubated at 37° C. and 5% CO2 for 7 days. Cell viability was assessed by adding 40 μL of Cell Titer-Glo® 3D reagent (Cat. No.: G9683, Promega) to each well and reading luminescence after mixing and incubation of the samples. The IC50 value of each test compound was calculated with XLFit curve fitting software.
On the technique in general: Cellular ATP, detected with luciferase, serves as a proxy for viable cell number.

In assay [3] the test system is MIA PaCa-2. The experiment in a line: Cell proliferation assay panel (Cell Titer-Glo), MIA PaCa-2. It is filed as cell-based. The note with it: Homo sapiens, MIA PaCa-2, 72 h. The protocol:
Potency of compounds was determined in cell proliferation assays in a panel of cancer cell lines. Cells were seeded in 384-well plates (Corning, Cat. #3765) at specified densities in 40 μL of culture medium and incubated overnight at 37° C. in a 5% CO2 incubator (culture conditions). With a robotic dispenser, serially diluted test compounds were added in a volume of 20 nL DMSO to wells in the culture plate to achieve the final desired concentrations of test compounds, and the cells were further incubated in culture conditions for 72 hr. The assay was terminated by addition of 25 μL of Cell Titer-Glo reagent (Promega, Madison, Wis.) to each well. Contents were mixed, the plate was incubated for 10 min at room temperature and luminescence was measured. The IC50 value of each test compound was calculated with XLFit curve fitting software. Results are shown in Table 4. ‘+++’ indicates IC50 values ≤300 nM, ‘++’ indicates IC50 values between 300 nM-3 μM, and ‘+’ indicates IC50 values ≥3 μM.

The test system of assay [4] is Phosphorylation of ERK in NCI-H358 cells. The experiment in a line: pERK assay, Method II (homogeneous TR-FRET, phospho-ERK Thr202/Tyr204). It is filed as cell-based. To be noted: Homo sapiens, 4 hr compound treatment. The protocol: Method II. Phosphorylation of ERK was assessed by a homogeneous TR-FRET assay (Advanced phospho-ERK (Thr202/Tyr204) cellular kit; Cat. #64AERPEH, Cisbio). In brief, NCI-H358 cells were seeded in a 384-well culture plate at a density of 6000 cells in 40 μL medium/well and grown overnight at 37° C. and 5% CO2. Each test compound was dosed in duplicate in a 10-dose 3-fold titration starting at 10 μM or 2 μM. The culture plate was then incubated for 4 hr in the incubator. At the end of the compound treatment, the medium was removed, 35 μL of lysis buffer was added to each well, and the plate was agitated on a plate shaker for 40 mins at 4° C. An antibody cocktail of phospho-ERK1/2 Eu Cryptate antibody and Phospho-ERK1/2 d2 antibody was prepared by separately diluting the antibodies 20-fold with detection buffer and then mixing them together. 3.4 μL of antibody cocktail was dispensed to each well of an empty 384-well white ProxiPlus assay plate (Perkin Elmer), and the plate briefly centrifuged. 13.6 μL of cell lysate was then added to the antibody-containing wells, and the plate was briefly centrifuged and then incubated 2 hr at room temperature. The plate was read on a fluorescence plate reader (Envision2104, Perkin Elmer), with an excitation wavelength of 337 nm and emission wavelengths of 615 nm and 665 nm. The IC50 value of each test compound was calculated with XLFit curve fitting software. Results are shown in Table 6. ‘+++’ indicates IC50 values ≤300 nM, ‘++’ indicates IC50 values between 300 nM-3 μM, and ‘+’ indicates IC50 values ≥3 μM.

KRAS G12C protein, sequence (P01116 1-188 isoform P01116-2 G12C): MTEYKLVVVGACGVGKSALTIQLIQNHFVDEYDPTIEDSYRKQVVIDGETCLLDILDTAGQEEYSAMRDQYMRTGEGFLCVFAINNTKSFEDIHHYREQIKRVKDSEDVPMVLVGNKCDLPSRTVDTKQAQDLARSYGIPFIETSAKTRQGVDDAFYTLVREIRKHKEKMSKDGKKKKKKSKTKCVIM

In the case of `C=CC(=O)N1CCN(c2c(C(=O)NC)c(=O)n(-c3c(C)ccnc3C(C)C)c3nc(-c4c(O)cccc4F)c(F)cc23)[C@@H](C)C1` (single isomer, unassigned) [76 (Isomer A)], the figures for the IC50 in assay [1] and in assay [2] were 300 to 3000 nM and 100 to 2000 nM, respectively.
Taken in the same sequence, the figures for `C=CC(=O)N1CCN(c2c(C(=O)NC)c(=O)n(-c3c(C)ccnc3C(C)C)c3nc(-c4c(O)cccc4F)c(F)cc23)C[C@@H]1CC#N` (single isomer, unassigned) [80 (Isomer A)] were not above 300 nM and 100 to 2000 nM.
The matching figures for `C=CC(=O)N1CCN(c2c(C(=O)NC)c(=O)n(-c3c(C)ccnc3C(C)C)c3nc(-c4c(O)cccc4F)c(F)cc23)C[C@H]1C` (single isomer, unassigned) [82 (Isomer A)]: not above 300 nM and 100 to 2000 nM.
Taken in the same sequence, the figures for `C=CC(=O)N1CCN(c2c(C(=O)NC)c(=O)n(-c3c(C)ccnc3C(C)C)c3nc(-c4c(O)cccc4F)c(F)cc23)CC1` (single isomer, unassigned) [84 (Isomer A), 4-(4-acryloylpiperazin-1-yl)-6-fluoro-7-(2-fluoro-6-hydroxyphenyl)-1-(2-isopropyl-4-methylpyridin-3-yl)-N-methyl-2-oxo-1,2-dihydro-1,8-naphthyridine-3-carboxamide] were not above 300 nM and 100 to 2000 nM.
In the case of `C=CC(=O)N1CCN(c2c(C(=O)NC)c(=O)n(-c3c(C)ccnc3C(C)C)c3nc(-c4c(C)ccc5[nH]ncc45)c(F)cc23)CC1` (single isomer, unassigned) [116 (Isomer A), 4-(4-acryloylpiperazin-1-yl)-6-fluoro-1-(2-isopropyl-4-methylpyridin-3-yl)-N-methyl-7-(5-methyl-1H-indazol-4-yl)-2-oxo-1,2-dihydro-1,8-naphthyridine-3-carboxamide], the 50% inhibitory concentration (IC50) (usually the concentration that gives 50% inhibition) is not above 300 nM in assay [1] and not below 3000 nM in assay [3].
Take `C=CC(=O)N1CCN(c2c(S(C)(=O)=O)c(=O)n(-c3c(C)ccnc3C(C)C)c3nc(-c4c(C)ccc5[nH]ncc45)c(F)cc23)CC1` (single isomer, unassigned) [124 (Isomer A), 4-(4-acryloylpiperazin-1-yl)-6-fluoro-1-(2-isopropyl-4-methylpyridin-3-yl)-7-(5-methyl-1H-indazol-4-yl)-3-(methylsulfonyl)-1,8-naphthyridin-2(1H)-one]: the IC50 in assay [1] was not above 300 nM; in assay [3] it was 300 to 3000 nM; in assay [4], 300 to 3000 nM.
Turning to `C=CC(=O)N1CCN(c2c(S(C)(=O)=O)c(=O)n(-c3c(C)ccnc3C(C)C)c3nc(-c4c(O)cccc4F)c(F)cc23)[C@@H](C)C1` (single isomer, unassigned) [131 (Isomer A)], the results for the half-maximal inhibitory concentration (IC50) in assay [1] and in assay [2] were 300 to 3000 nM and 100 to 2000 nM, respectively.
For the compound `C=CC(=O)N1CCN(c2c(S(C)(=O)=O)c(=O)n(-c3c(C)ccnc3C(C)C)c3nc(-c4c(O)cccc4F)c(F)cc23)C[C@@H]1CC#N` (single isomer, unassigned) [135 (Isomer B)], the half-maximal inhibitory concentration (IC50) in assay [1] lay in the range of 300 to 3000 nM; in assay [2], 100 to 2000 nM.
The matching figures for `C=CC(=O)N1CCN(c2c(S(C)(=O)=O)c(=O)n(-c3c(C)ccnc3C(C)C)c3c(F)c(-c4c(O)cccc4F)c(Cl)cc23)CC1` (single isomer, unassigned) [176 (Isomer D), 4-(4-acryloylpiperazin-1-yl)-6-chloro-8-fluoro-7-(2-fluoro-6-hydroxyphenyl)-1-(2-isopropyl-4-methylpyridin-3-yl)-3-(methylsulfonyl)quinolin-2(1H)-one]: not above 300 nM and not above 100 nM.
Turning to `C=CC(=O)N1CCN(c2c(S(C)(=O)=O)c(=O)n(-c3c(C)ccnc3C(C)C)c3c(F)c(-c4c(C)ccc5[nH]ncc45)c(Cl)cc23)CC1` (single isomer, unassigned) [187 (Isomer C), 4-(4-acryloylpiperazin-1-yl)-6-chloro-8-fluoro-1-(2-isopropyl-4-methylpyridin-3-yl)-7-(5-methyl-1H-indazol-4-yl)-3-(methylsulfonyl)quinolin-2(1H)-one], the 50% inhibitory concentration (IC50) in assay [1] is not above 300 nM; in assay [3], 300 to 3000 nM; in assay [2], not above 100 nM.
On to `C=CC(=O)N1CCN(c2c(S(C)(=O)=O)c(=O)n(-c3c(C)ccnc3C(C)C)c3nc(-c4cccc5sc(N)nc45)c(F)cc23)C[C@H]1C` (single isomer, unassigned) [249 (Isomer A)], for which the 50% inhibitory concentration (IC50) in assay [1] was not above 300 nM; in assay [3], 300 to 3000 nM.
As to `C=CC(=O)N1CCN(c2c(S(C)(=O)=O)c(=O)n(-c3c(C)ccnc3C(C)C)c3nc(-c4cccc5sc(N)nc45)c(F)cc23)CC1` (single isomer, unassigned) [250 (Isomer A), 4-(4-acryloylpiperazin-1-yl)-7-(2-aminobenzo[d]thiazol-4-yl)-6-fluoro-1-(2-isopropyl-4-methylpyridin-3-yl)-3-(methylsulfonyl)-1,8-naphthyridin-2(1H)-one], the 50% inhibitory concentration (IC50) in assay [1] is not above 300 nM; in assay [3] it was 300 to 3000 nM; in assay [4] it was not above 300 nM.
Consider `C=CC(=O)N1CCN(c2c(S(C)(=O)=O)c(=O)n(-c3c(C)ccnc3C(C)C)c3c(F)c(-c4cccc5sc(N)nc45)c(Cl)cc23)CC1` (single isomer, unassigned) [252 (Isomer D), 4-(4-acryloylpiperazin-1-yl)-7-(2-aminobenzo[d]thiazol-4-yl)-6-chloro-8-fluoro-1-(2-isopropyl-4-methylpyridin-3-yl)-3-(methylsulfonyl)quinolin-2(1H)-one], for which the IC50 was not above 300 nM in assay [1] and not above 100 nM in assay [2].
For `C=CC(=O)N1CCN(c2c(C(=O)NC)c(=O)n(-c3c(C)ccnc3C(C)C)c3nc(-c4cccc5sc(N)nc45)c(F)cc23)CC1` (single isomer, unassigned) [254 (Isomer A), 4-(4-acryloylpiperazin-1-yl)-7-(2-aminobenzo[d]thiazol-4-yl)-6-fluoro-1-(2-isopropyl-4-methylpyridin-3-yl)-N-methyl-2-oxo-1,2-dihydro-1,8-naphthyridine-3-carboxamide], the IC50 was 300 to 3000 nM in assay [1] and not below 3000 nM in assay [3].
